Results: patent US20260041683A1, “Compounds with Anti-Acinetobacter Baumannii Activity” (University of Kentucky Research Foundation, priority 2022, published 2026)
Converted amounts (≈) assume the structure as drawn. Like-named read-outs stand apart in the source and are kept apart here.

Tests used:
E. cloacae ATCC 13047 = assay: MIC determination; type: cell-based; details: Enterobacter cloacae, ATCC13047; Table 5; Mueller-Hinton medium; E = E. cloacae ATCC 13047; read-out: MIC strain E
Ab ATCC 19606 (strain I) = assay: MIC determination (double dilution, Mueller-Hinton broth); type: cell-based, Acinetobacter baumannii; details: Acinetobacter baumannii, ATCC19606
Protocol: All bacterial strains listed above were stored at −80° C. All strains were streaked on Mueller-Hinton (MH) plates and allowed to grow at 37° C. overnight. […] The resulting culture was diluted 1:1000 and added to the prepared serially doubly diluted compound solutions in 96-well plates. For M. smegmatis, a 1:100 dilution of the bacteria was done in MH. All MIC values were determined using 96-well plates with low evaporation seals at least in duplicate. For each row, one well was reserved for sterile control (which consisted of 200 μL of MH medium) and another well was reserved for growth control (which consisted of 100 μL of MH medium seeded with 100 μL of bacterial culture).
(§1) Minimum inhibitory concentrations (MIC) of all compounds from the series were measured in liquid cultures of different Ab strains by a double-dilution method in Mueller-Hinton broth. Initially, the activity of all 46 compounds against Ab ATCC 19606 (a control strain) and Ab ATCC BAA1605 (a multidrug-resistant strain) (Table 1; data shown for 27 representative compounds) was measured.

[1] = tested on: S. epidermidis ATCC 12228; assay: MIC determination; type: cell-based; details: Staphylococcus epidermidis, ATCC12228; Table 5; Mueller-Hinton medium; C = S. epidermidis ATCC 12228; read-out: MIC strain C
E. coli MC1061 = assay: MIC determination; type: cell-based; details: Escherichia coli; Table 5; Mueller-Hinton medium; D = E. coli MC1061; read-out: MIC strain D
S. aureus ATCC 25923 = assay: MIC determination; type: cell-based; details: Staphylococcus aureus, ATCC25923; Table 5; Mueller-Hinton medium; B = S. aureus ATCC 25923; read-out: MIC strain B
S. enterica ATCC 14028 = assay: MIC determination; type: cell-based; details: Salmonella enterica, ATCC14028; Table 5; Mueller-Hinton medium; H = S. enterica ATCC 14028; read-out: MIC strain H
B. anthracis Sterne F32 = assay: microbe, parasite or virus in culture; type: cell-based; details: Bacillus anthracis, STERNEF32, read-out: MIC strain A
K. pneumoniae ATCC 27736 = assay: MIC determination; type: cell-based; details: Klebsiella pneumoniae, ATCC27736; Table 5; Mueller-Hinton medium; F = K. pneumoniae ATCC 27736; read-out: MIC strain F
[2] = tested on: Ab ATCC BAA1605 (strain J, multidrug-resistant); assay: MIC determination; type: cell-based; details: Acinetobacter baumannii
Protocol: (§2) All bacterial strains listed above were stored at −80° C. All strains were streaked on Mueller-Hinton (MH) plates and allowed to grow at 37° C. overnight. Enough colonies were scraped from the plate and suspended in MH broth with vortexing to reach an attenuance at 600 nm (OD600) of ˜0.5. The resulting culture was diluted 1:1000 and added to the prepared serially doubly diluted compound solutions in 96-well plates. For M. smegmatis, a 1:100 dilution of the bacteria was done in MH. All MIC values were determined using 96-well plates with low evaporation seals at least in duplicate. For each row, one well was reserved for sterile control (which consisted of 200 μL of MH medium) and another well was reserved for growth control (which consisted of 100 μL of MH medium seeded with 100 μL of bacterial culture).
as §1

P. aeruginosa ATCC 27853 = assay: MIC determination; type: cell-based; details: Pseudomonas aeruginosa, ATCC27853; Table 5; Mueller-Hinton medium; G = P. aeruginosa ATCC 27853; read-out: MIC strain G
[3] = tested on: all 43 strains of A. baumannii (41 CDC strains and 2 ATCC strains); assay: MIC value statistics for all A. baumannii strains; type: cell-based, Acinetobacter baumannii; details: of 43 A. baumannii strains
Protocol: as §2, with “[…].” for “For M. smegmatis, a 1:100 dilution of the bacteria was done in MH. All MIC values were determined using 96-well plates with low evaporation seals at least in duplicate.”
Having established that the observed activity is selective to A. baumannii, all synthesized compounds were tested against a panel of antibiotic resistant A. baumannii from the Antimicrobial Resistant (AR) Isolate Bank from the CDC along with strains I and J (Table Si). […]. Based on this statistical analysis, the best compound is 5e followed closely by 3e.

[4] = Table 1, control strain, read-out: MIC Ab ATCC 19606
[5] = Table 5, Mueller-Hinton medium, I = A. baumannii ATCC 19606, read-out: MIC strain I
[6] = Table 1, multidrug-resistant strain, read-out: MIC Ab ATCC BAA 1605
[7] = Table 5, Mueller-Hinton medium, J = A. baumannii BAA1605, read-out: MIC strain J

O=C(NNc1ccc(Cl)cc1)c1ccc2ccccc2n1 [Compound 12e]
MIC (E. cloacae ATCC 13047): > 64 µg/mL
MIC (Ab ATCC 19606 (strain I); [4]): 0.5 µg/mL (≈ 1.68 µM)
MIC (Ab ATCC 19606 (strain I); [5]): 0.5 µg/mL (≈ 1.68 µM)
MIC [1]: > 64 µg/mL
MIC (E. coli MC1061): 16 µg/mL (≈ 53.7 µM)
MIC (S. aureus ATCC 25923): > 64 µg/mL
MIC (S. enterica ATCC 14028): > 64 µg/mL
MIC (B. anthracis Sterne F32): > 64 µg/mL
MIC (K. pneumoniae ATCC 27736): > 64 µg/mL
MIC [2, 6]: 0.5 µg/mL (≈ 1.68 µM)
MIC [2, 7]: 0.5 µg/mL (≈ 1.68 µM)
MIC (P. aeruginosa ATCC 27853): > 64 µg/mL
number of compound/strain combinations with MIC value 0.25 μg/mL [3]: 7
number of compound/strain combinations with MIC value 0.5 μg/mL [3]: 19
number of compound/strain combinations with MIC value 1 μg/mL [3]: 17

O=C(NNc1cccc(F)c1)c1ccc(F)cn1 [Compound 3a]
MIC (E. cloacae ATCC 13047): > 64 µg/mL
MIC (Ab ATCC 19606 (strain I); [4]): 0.5 µg/mL (≈ 2.01 µM)
MIC (Ab ATCC 19606 (strain I); [5]): 0.5 µg/mL (≈ 2.01 µM)
MIC [1]: > 64 µg/mL
MIC (E. coli MC1061): 64 µg/mL (≈ 257 µM)
MIC (S. aureus ATCC 25923): > 64 µg/mL
MIC (S. enterica ATCC 14028): > 64 µg/mL
MIC (B. anthracis Sterne F32): > 64 µg/mL
MIC (K. pneumoniae ATCC 27736): > 64 µg/mL
MIC [2, 6]: 0.5 µg/mL (≈ 2.01 µM)
MIC [2, 7]: 0.5 µg/mL (≈ 2.01 µM)
MIC (P. aeruginosa ATCC 27853): > 64 µg/mL
number of compound/strain combinations with MIC value 0.25 μg/mL [3]: 16
number of compound/strain combinations with MIC value 0.5 μg/mL [3]: 18
number of compound/strain combinations with MIC value ≤0.125 μg/mL [3]: 9

C=CC(=O)NNc1ccc(Cl)cc1 [Compound 17e]
MIC (E. cloacae ATCC 13047): 16 µg/mL (≈ 81.4 µM)
MIC (Ab ATCC 19606 (strain I); [4]): 0.25 µg/mL (≈ 1.27 µM)
MIC (Ab ATCC 19606 (strain I); [5]): 0.25 µg/mL (≈ 1.27 µM)
MIC [1]: 64 µg/mL (≈ 325 µM)
MIC (E. coli MC1061): 16 µg/mL (≈ 81.4 µM)
MIC (S. aureus ATCC 25923): 64 µg/mL (≈ 325 µM)
MIC (S. enterica ATCC 14028): 16 µg/mL (≈ 81.4 µM)
MIC (B. anthracis Sterne F32): > 64 µg/mL
MIC (K. pneumoniae ATCC 27736): 16 µg/mL (≈ 81.4 µM)
MIC [2, 6]: 0.25 µg/mL (≈ 1.27 µM)
MIC [2, 7]: 0.25 µg/mL (≈ 1.27 µM)
MIC (P. aeruginosa ATCC 27853): > 64 µg/mL
number of compound/strain combinations with MIC value 0.25 μg/mL [3]: 21
number of compound/strain combinations with MIC value 0.5 μg/mL [3]: 13
number of compound/strain combinations with MIC value ≤0.125 μg/mL [3]: 9

O=C(NNc1ccc(F)cc1)c1ccc(F)cn1 [Compound 3d]
MIC (E. cloacae ATCC 13047): 64 µg/mL (≈ 257 µM)
MIC (Ab ATCC 19606 (strain I); [4]): 0.5 µg/mL (≈ 2.01 µM)
MIC (Ab ATCC 19606 (strain I); [5]): 0.5 µg/mL (≈ 2.01 µM)
MIC [1]: > 64 µg/mL
MIC (E. coli MC1061): 64 µg/mL (≈ 257 µM)
MIC (S. aureus ATCC 25923): > 64 µg/mL
MIC (S. enterica ATCC 14028): 64 µg/mL (≈ 257 µM)
MIC (B. anthracis Sterne F32): > 64 µg/mL
MIC (K. pneumoniae ATCC 27736): 64 µg/mL (≈ 257 µM)
MIC [2, 6]: 0.25 µg/mL (≈ 1 µM)
MIC [2, 7]: 0.25 µg/mL (≈ 1 µM)
MIC (P. aeruginosa ATCC 27853): > 64 µg/mL
number of compound/strain combinations with MIC value 0.25 μg/mL [3]: 10
number of compound/strain combinations with MIC value 0.5 μg/mL [3]: 19
number of compound/strain combinations with MIC value 1 μg/mL [3]: 13
number of compound/strain combinations with MIC value ≤0.125 μg/mL [3]: 1

COc1ccc(NNC(=O)c2ccc(F)cn2)cc1 [Compound 3f]
MIC (E. cloacae ATCC 13047): > 64 µg/mL
MIC (Ab ATCC 19606 (strain I); [4]): 1 µg/mL (≈ 3.83 µM)
MIC (Ab ATCC 19606 (strain I); [5]): 1 µg/mL (≈ 3.83 µM)
MIC [1]: > 64 µg/mL
MIC (E. coli MC1061): > 64 µg/mL
MIC (S. aureus ATCC 25923): > 64 µg/mL
MIC (S. enterica ATCC 14028): > 64 µg/mL
MIC (B. anthracis Sterne F32): > 64 µg/mL
MIC (K. pneumoniae ATCC 27736): > 64 µg/mL
MIC [2, 6]: 0.5 µg/mL (≈ 1.91 µM)
MIC [2, 7]: 0.5 µg/mL (≈ 1.91 µM)
MIC (P. aeruginosa ATCC 27853): > 64 µg/mL
number of compound/strain combinations with MIC value 0.25 μg/mL [3]: 1
number of compound/strain combinations with MIC value 0.5 μg/mL [3]: 2
number of compound/strain combinations with MIC value 1 μg/mL [3]: 9
number of compound/strain combinations with MIC value 2 μg/mL [3]: 19
number of compound/strain combinations with MIC value 4 μg/mL [3]: 11
number of compound/strain combinations with MIC value 8 μg/mL [3]: 1

O=C(NNC1CCCCC1)c1ccc2ccccc2n1 [Compound 12h]
MIC (E. cloacae ATCC 13047): > 64 µg/mL
MIC (Ab ATCC 19606 (strain I); [5]): > 64 µg/mL
MIC [1]: > 64 µg/mL
MIC (E. coli MC1061): 64 µg/mL (≈ 238 µM)
MIC (S. aureus ATCC 25923): > 64 µg/mL
MIC (S. enterica ATCC 14028): > 64 µg/mL
MIC (B. anthracis Sterne F32): > 64 µg/mL
MIC (K. pneumoniae ATCC 27736): > 64 µg/mL
MIC [2, 7]: > 64 µg/mL
MIC (P. aeruginosa ATCC 27853): > 64 µg/mL
number of compound/strain combinations with MIC value >64 μg/mL [3]: 43

O=C(NNc1ccc(Cl)cc1)c1cc2ccccc2[nH]1 [Compound 14e]
MIC (E. cloacae ATCC 13047): > 64 µg/mL
MIC (Ab ATCC 19606 (strain I); [5]): 0.5 µg/mL (≈ 1.75 µM)
MIC [1]: > 64 µg/mL
MIC (E. coli MC1061): > 64 µg/mL
MIC (S. aureus ATCC 25923): > 64 µg/mL
MIC (S. enterica ATCC 14028): > 64 µg/mL
MIC (B. anthracis Sterne F32): > 64 µg/mL
MIC (K. pneumoniae ATCC 27736): > 64 µg/mL
MIC [2, 7]: 0.25 µg/mL (≈ 0.875 µM)
MIC (P. aeruginosa ATCC 27853): > 64 µg/mL
number of compound/strain combinations with MIC value 0.25 μg/mL [3]: 18
number of compound/strain combinations with MIC value 0.5 μg/mL [3]: 20
number of compound/strain combinations with MIC value 1 μg/mL [3]: 2
number of compound/strain combinations with MIC value ≤0.125 μg/mL [3]: 3

COc1cccc(NNC(=O)c2ccc(F)cn2)c1 [Compound 3c]
MIC (E. cloacae ATCC 13047): > 64 µg/mL
MIC (Ab ATCC 19606 (strain I); [4]): 0.5 µg/mL (≈ 1.91 µM)
MIC (Ab ATCC 19606 (strain I); [5]): 0.5 µg/mL (≈ 1.91 µM)
MIC [1]: 64 µg/mL (≈ 245 µM)
MIC (E. coli MC1061): > 64 µg/mL
MIC (S. aureus ATCC 25923): > 64 µg/mL
MIC (S. enterica ATCC 14028): > 64 µg/mL
MIC (B. anthracis Sterne F32): > 64 µg/mL
MIC (K. pneumoniae ATCC 27736): > 64 µg/mL
MIC [2, 6]: 0.5 µg/mL (≈ 1.91 µM)
MIC [2, 7]: 0.5 µg/mL (≈ 1.91 µM)
MIC (P. aeruginosa ATCC 27853): > 64 µg/mL
number of compound/strain combinations with MIC value 0.25 μg/mL [3]: 2
number of compound/strain combinations with MIC value 0.5 μg/mL [3]: 12
number of compound/strain combinations with MIC value 1 μg/mL [3]: 23
number of compound/strain combinations with MIC value 2 μg/mL [3]: 5
number of compound/strain combinations with MIC value ≤0.125 μg/mL [3]: 1
